# According to patent publication US9560848B2, “Method and compositions for biofouling deterrence” (Clemson University, priority 2008, dated 2017):
# Columns and labels:
# Oyster larvae [1] = assay: Treatment of oyster larvae with micromolar concentrations of noradrenalin; type: in vivo
# Source text: Effect of Treatment of Oyster Larvae with Micromolar Concentrations of Noradrenalin
# [2] = system: cyprids of the barnacle Balanus amphitrite; type: in vivo
# Method: Barnacle cyprids were challenged with 30-100 micro molar ranges of noradrenalin. Barnacle cyprids were monitored and assayed over period of 120 hours (5 days). Cyprid metamorphosis was imaged at 24, 48, 96, 120 hour intervals. Images were taken at each intervals and samples preserved for SEM analysis. On the last day of the experiments the metamorphosed barnacles were assayed for viability. The experiments were repeated 4 times with 3 replicates per experiment. […] Post NA treatment, either by flash induction or by incubating the cyprids in ASW containing NA. […] The onset of ecdysis was observed between 24 hr and 48 hr post NA treatment. Metamorphosing juvenile barnacles were seen encased in bivalve cyprid carapace. The pumping action of the thorax similar to beating of cirri was also observed (Glenner and Høeg 1993). […] Some ecdysing barnacles were still encased in cyprid carapaces while others had shed the bivalve carapace. The cyprids that had shed carapace were presumed to have ‘grown’ out of it as opposed to have shed carapace voluntarily as observed in untreated attached cyprids (Glenner and Høeg 1993). […] Ninety-six hours post NA treatment, the operculum with tergal and scutal plates is well demarcated from the wall plates. In contrast, control barnacles can be seen fully calcified with well recognizable wall and opercular shell plates at around 24-48 hr post settlement. Thus the NA treated cyprids took 96 hr to fully metamorphose and calcify but remained unattached and un-cemented to the substratum.
# Exploration of surfaces by invertebrate larvae is an important step leading to attachment and metamorphosis into juveniles. Oyster pediveliger larvae and barnacle cyprid larvae investigate surfaces using exploratory structures bearing an array of sensory cells. The effect of the neurotransmitter noradrenaline (NA) was investigated on the cyprids of the barnacle Balanus amphitrite. 1 day old cyprids were challenged with micro-molar concentrations of NA ranging from […] and assayed over 5 days. […] Remnants of cyprid organs such as the antennules were clearly visible in metamorphosed juveniles. […] Cyprids are compared to oyster larvae to understand the effects of NA on the signal transduction cascades involved in larval settlement and to explore NAs potential as a natural fouling deterrent. Materials and Methods One day old cypris larvae of the B. amphitrite were challenged with […] of noradrenaline. Cyprids were challenged in two different ways. One group was flash challenged for 3 hours then washed with artificial sea water (ASW) and incubated in ASW free of NA for the remaining duration of the experiment. The second group was incubated with NA for 24 hours then washed and incubated in ASW for the remaining duration of the experiment. Barnacle cyprids were monitored and assayed over period of 120 hours (5 days). Cyprid metamorphosis was imaged at 24, 48, 96, 120 hour intervals. Images were taken at each intervals and samples preserved for SEM analysis. The cyprid larvae were imaged using, Zeiss discovery V12 stereo-microscope, Nikon AZ100 stereo-macrosope and the Hitachi-4800 field emission scanning electron microscope. On the last day of the experiments the metamorphosed barnacles were assayed for viability. Viability was ascertained by observing the movement of cirri and ability of the metamorphosed barnacles to feed normally. The experiments were repeated 4 times with 3 replicates per experiment.
# Oyster larvae [3] = details: Coon, Bonar et al 1986; cited from earlier work
smiles,measurement,setting,value
"NCC(O)c1ccc(O)c(O)c1 (racemic) [NA, DL-noradrenaline]",metamorphosis of treated oyster larvae,Oyster larvae [1],metamorphose into adult oysters without cementation
same,settling behavior and cementation of oyster larvae,Oyster larvae [1],complete disruption of the settling behavior and cementation
same,viability and development of treated oysters,Oyster larvae [1],viable and develop normally into adults
same,metamorphosis of treated cyprids,[2]; 30-100 micro molar NA,metamorphosed into adults
same,"settling, attachment or cementation of cyprids","[2]; 30-100 micro molar NA, flash challenge 3 hours or 24 hours incubation, monitored 120 hours, listed as noradrenalin",prevented them from settling or attaching to a surface
same,time to fully metamorphose and calcify,"[2]; NA treated cyprids, controls 24-48 hr post settlement",96 h
same,swimming of cyprids post NA treatment,[2]; flash induction or incubation in ASW containing NA,stopped swimming and sank to the bottom
same,appearance of juvenile barnacles compared to controls,[2]; in vivo,appeared to be normal
same,onset of ecdysis post NA treatment,[2]; post NA treatment,24 to 48 h
same,swimming of NA treated oyster larvae,Oyster larvae [3],stopped swimming and sank to the bottom of petri dishes
